# Experiments:
# Assay type in all cases: in vivo
# [1] = system: larvae of the banded cucumber beetle (Diabrotica balteata); assay: Diabrotica balteata spray test; details: 168 h, 100 g/ha (=32 μg/well), after 7 days, wheat seeds, read-out: efficacy (seedlings grown like untreated, uninfected control)
# Description: Diabrotica balteata—spray test
# Solvent: 78.0 parts by weight of acetone
# 1.5 parts by weight of dimethylformamide
# (§1) Emulsifier: alkylarylpolyglycol ether
# (§2) To produce a suitable preparation of active compound, 1 part by weight of active compound is mixed with the stated amount of solvent, and the concentrate is diluted with water, containing an emulsifier concentration of 1000 ppm, to the desired concentration. Further test concentrations are prepared by dilution with emulsifier containing water.
# Soaked wheat seeds (Triticum aestivum) are placed in a multiple well plate filled with agar and some water and are incubated for 1 day to germinate (5 seeds per well). The germinated wheat seeds are sprayed with a test solution containing the desired concentration of the active ingredient. Afterwards each unit is infected with 10-20 larvae of the banded cucumber beetle (Diabrotica balteata).
# After 7 days efficacy in % is determined. 100% means all the seedlings have grown up like in the untreated, uninfected control; 0% means none of the seedlings have grown.
# [2] = system: green peach aphid (Myzus persicae); assay: Myzus persicae oral test; details: 120 h
# Description: Solvent: 100 parts by weight acetone
# To produce a suitable preparation of active compound, 1 part by weight of active compound is mixed with the stated amount of solvent, and the concentrate is diluted with water to the desired concentration. 50 μL compound solution is filled in microtiter plates and 150 μL IPL41 insect medium (33%+15% sugar) is added to obtain a total volume of 200 μL per well. Afterwards the plates are sealed with parafilm through which a mixed population of the green peach aphid (Myzus persicae) can suck on the compound preparation.
# (§3) After 5 days mortality in % is determined. 100% means all aphids have been killed and 0% means none of the aphids have been killed.
# [3] = system: green peach aphid (Myzus persicae); assay: Myzus persicae spray test; details: foliar, 120 h, after 5 days, Chinese cabbage leaf disks
# Description: Myzus persicae—spray test
# (§4) Solvent: 78.0 parts by weight acetone • 1.5 parts by weight dimethylformamide
# as §1
# as §2, with “solvents” for “solvent,”, “and” for “and the concentrate”
# Chinese cabbage (Brassica pekinensis) leaf disks infected with all instars of the green peach aphid (Myzus persicae), are sprayed with a preparation of the active ingredient of the desired concentration.
# as §3
# [4] = system: fall armyworm larvae (Spodoptera frugiperda); assay: Spodoptera frugiperda spray test; details: in Zea mays, 168 h
# Description: Spodoptera frukiperda—Spray Test
# as §4, §1
# as §2, with “solvents” for “solvent,”, “and” for “and the concentrate”
# Maize (Zea mays) leaf sections are sprayed with a preparation of the active ingredient of the desired concentration. Once dry, the leaf sections are infested with fall armyworm larvae (Spodoptera frugiperda).
# After 7 days mortality in % is determined. 100% means all caterpillars have been killed and 0% means none of the caterpillars have been killed.
# [5] = system: Aedes aegypti strain MONHEIM; assay: Aedes aegypti test (AEDSAE surface treatment & contact assay); details: 24 hours after contact, read-out: efficacy (mortality); for mortality at 20 mg/m2: surface concentration 20 mg/m^2, 30 minutes exposure
# Description: Aedes Aegypti Test (AEDSAE Surface Treatment & Contact Assay)
# (§5) Solvent: Aceton+2000 ppm rapeseed oil methyl ester (RME)
# (§6) In order to produce a sufficient, active ingredient containing solution it is necessary to solve the test compound in the solvent-mix (acetone at 2 mg/ml/RME 2000 ppm). This solution is pipetted onto a glazed tile and after evaporation of the acetone, adult mosquitoes of the species Aedes aegypti strain MONHEIM are placed onto the dried surface. The exposure time is 30 minutes. Mortality in percent (%) is determined 24 hours after contact of the insects to the treated surface. 100% mortality means that all tested insects are dead, whereas 0% means that no insect died.
# [6] = system: Anopheles funestus strain FUMOZ-R; assay: Anopheles funestus test (ANPHFU surface treatment & contact assay); details: surface concentration 20 mg/m^2, 30 minutes exposure, 24 hours after contact, read-out: efficacy (mortality)
# Description: Anopheles funestus Test (ANPHFU Surface Treatment & Contact Assay)
# as §5
# as §6, with “Anopheles funestus” for “Aedes aegypti”, “FUMOZ-R (Hunt et al., Med. Vet. Entomol. 2005 September; 19(3): 271-275)” for “MONHEIM”
# [7] = system: Musca domestica strain WHO-N; assay: Musca domestica test (MUSCDO surface treatment & contact assay); details: 24 hours after contact, read-out: efficacy (mortality); for mortality at 4 mg/m2: surface concentration 4 mg/m^2, 30 minutes exposure; for mortality at 20 mg/m2: surface concentration 20 mg/m^2, 30 minutes exposure
# Description: Musca domestica Test (MUSCDO Surface Treatment & Contact Assay)
# as §5
# as §6, with “flies” for “mosquitoes”, “Musca domestica” for “Aedes aegypti”, “WHO-N” for “MONHEIM”
# [8] = system: Rhipicephalus microplus larvae (strain Parkhurst, resistant against synthetic pyrethroids); assay: Rhipicephalus (Boophilus) microplus in-vitro contact test, larval cattle tick; details: 5 μg/cm^2 (=500 g/ha), after 48 hours, read-out: efficacy (larvae dead or moribund)
# Description: Rhipicephalus (Boophilus) Microplus—In-Vitro Contact Tests Larval Cattle Tick (Strain Parkhurst, Resistant Against Synthetic Pyrethroids)
# (§7) 9 mg compound is solved in 1 mL acetone and diluted with acetone to the desired concentration. 250 μL of the test solution is filled in 25 mL glass test tubes and homogeneously distributed on the inner walls by rotation and tilting on a shaking device (2 h at 30 rpm). With a compound concentration of 900 ppm, an inner surface of 44.7 cm^2 and a homogeneous distribution, a dose of 5 μg/cm^2 is achieved.
# After the solvent has evaporated, each test tube is filled with 20-50 cattle tick larvae (Rhipicephalus microplus), closed with a perforated lid and incubated in a horizontal position at 85% relative humidity and 27° C. in an incubator. After 48 hours efficacy is determined. The larvae are patted on the ground of the tubes and negative geotactic behaviour is recorded.
# An efficacy of 100% means all larvae are dead or moribund; 0% means no larvae are dead or moribund.
# [9] = system: adult engorged female ticks (Rhipicephalus microplus); assay: Rhipicephalus (Boophilus) microplus injection test; details: 168 h, after 7 days, read-out: efficacy (infertile eggs); for pest or weed control at 0.004 mg: 4 μg/animal; for pest or weed control at 0.02 mg: 20 μg/animal
# Description: Rhipicephalus (Boophilus) microplus—Injection Test
# (§8) Solvent: dimethyl sulfoxide
# To produce a suitable preparation of active compound, 10 mg of active compound are dissolved in 0.5 mL solvent, and the concentrate is diluted with solvent to the desired concentration.
# Five adult engorged female ticks (Rhipicephalus microplus) are injected with 1 μL compound solution into the abdomen. The ticks are transferred into replica plates and incubated in a climate chamber.
# After 7 days egg deposition of fertile eggs is monitored. Eggs where fertility is not visible are stored in a climate chamber till hatching after about 42 days. An efficacy of 100% means all eggs are infertile; 0% means all eggs are fertile.
# [10] = system: adult unfed cat fleas (Ctenocephalides felis); assay: Ctenocephalides felis oral test; details: 48 h
# Description: Ctenocephalides felis—Oral Test
# as §8
# To produce a suitable preparation of active compound, 10 mg of active compound are dissolved in 0.5 ml solvent, and the concentrate is diluted with cattle blood to the desired concentration.
# Approximately 20 adult unfed cat fleas (Ctenocephalides felis) are placed in flea chambers. The blood chamber, sealed with parafilm on the bottom, are filled with cattle blood supplied with compound solution and placed on the gauze covered top of the flea chamber, so that the fleas are able to suck the blood. The blood chamber is heated to 37° C. whereas the flea chamber is kept at room temperature.
# After 2 days mortality in % is determined. 100% means all the fleas have been killed; 0% means none of the fleas have been killed.
# [11] = system: adult brown dog ticks (Rhipicephalus sanguineus); assay: Rhipicephalus sanguineus in-vitro contact test with adult brown dog ticks; details: 5 μg/cm^2 (=500 g/ha), after 48 hours, read-out: efficacy (ticks dead or moribund)
# Description: Rhipicephalus sanguineus—In-Vitro Contact Tests with Adult Brown Dog Ticks
# as §7
# After the solvent has evaporated, each test tube is filled with 5-10 adult brown dog ticks (Rhipicephalus sanguineus), closed with a perforated lid and incubated in a lying position at room temperature and relative humidity. After 48 hours efficacy is determined. The ticks are patted on the ground of the tubes and are incubated on a heating plate at 45-50° C. for at most 5 minutes. Immotile or uncoordinated moving ticks, which are not able to escape the heat by climbing upwards, are marked as dead or moribund.
# An efficacy of 100% means all ticks are dead or moribund; 0% means no ticks are dead or moribund.
# [12] = system: Blattella germanica strain PAULINIA; assay: Blattella germanica test (BLTTGE surface treatment & contact assay); details: surface concentration 20 mg/m^2, 30 minutes exposure, 24 hours after contact, read-out: efficacy (mortality)
# Description: Blattella germanica Test (BLTTGE Surface Treatment & Contact Assay)
# as §5
# as §6, with “animals” for “mosquitoes”, “Blattella germanica” for “Aedes aegypti”, “PAULINIA” for “MONHEIM”
# [13] = system: adult cat fleas (Ctenocephalides felis); assay: Ctenocephalides felis in-vitro contact test, adult cat flea; details: after 48 hours, read-out: efficacy (fleas dead or moribund)
# Description: as §7, with “Ctenocephalides felis—In-Vitro Contact Tests Adult Cat Flea 9 mg” for “9 mg”
# After the solvent has evaporated, each test tube is filled with 5-10 adult cat fleas (Ctenocephalidesfelis), closed with a perforated lid and incubated in a lying position at room temperature and relative humidity.
# After 48 hours efficacy is determined. The fleas are patted on the ground of the tubes and are incubated on a heating plate at 45-50° C. for at most 5 minutes. Immotile or uncoordinated moving fleas, which are not able to escape the heat by climbing upwards, are marked as dead or moribund.
# An efficacy of 100% means all fleas are dead or moribund; 0% means no fleas are dead or moribund.
# [14] = system: larvae of the southern green stink bug (Nezara viridula); assay: Nezara viridula spray test; details: 96 h, after 4 days, barley plants
# Description: Nezara viridula—Spray Test
# Solvent: 78.0 parts by weight of acetone • • 1.5 parts by weight of dimethylformamide
# as §1, §2
# Barley plants (Hordeum vulgare) infested with larvae of the southern green stink bug (Nezara viridula) are sprayed with a test solution containing the desired concentration of the active ingredient.
# After 4 days mortality in % is determined. 100% means all the stink bugs have been killed; 0% means none of the stink bugs have been killed.
SMILES,"pest or weed control at 32 µg/disc, 100 g/ha [1] [%]",mortality at 4 ppm [2] [%],mortality at 100 g/ha [3] [%],mortality at 100 g/ha [4] [%],"mortality at 4 mg/m2 ([5]; surface concentration 4 mg/m^2, 30 minutes exposure) [%]",mortality at 20 mg/m2 [5] [%],mortality at 20 mg/m2 [6] [%],mortality at 4 mg/m2 [7] [%],mortality at 20 mg/m2 [7] [%],pest or weed control at 5 µg/cm2 [8] [%],pest or weed control at 0.004 mg [9] [%],pest or weed control at 0.02 mg [9] [%],mortality at 100 ppm [10] [%],"pest or weed control at 5 µg/cm2, 500 g/ha [11] [%]",mortality at 20 mg/m2 [12] [%],"pest or weed control at 1 µg/cm2, 100 g/ha ([13]; 1 μg/cm^2 (=100 g/ha)) [%]","pest or weed control at 5 µg/cm2, 500 g/ha ([13]; 5 μg/cm^2 (=500 g/ha)) [%]",mortality at 100 g/ha [14] [%]
"CC(NC(=O)c1cc(Cl)cc(OC(F)(F)F)c1)c1nc(Cl)nn1-c1ncccn1 (racemic) [Example I-001, 3-chloro-N-[1-(5-chloro-2-pyrimidin-2-yl-1,2,4-triazol-3-yl)ethyl]-5-(trifluoromethoxy)benzamide]",100,100,90,100,80 to 100,80 to 100,80 to 100,80 to 100,80 to 100,,,,,,,,,
"CC(NC(=O)c1cc(Cl)cc(C(F)(F)F)c1)c1nc(Br)nn1-c1ccc(Cl)cn1 (racemic) [Example I-018, N-[1-[5-bromo-2-(5-chloro-2-pyridyl)-1,2,4-triazol-3-yl]ethyl]-3-chloro-5-(trifluoromethyl)benzamide]",100,,,83,,80 to 100,80 to 100,,,80,80,100,,,,,,
CC(NC(=O)c1cc(Br)cc(C(F)(F)F)c1)c1nc(Cl)nn1-c1ncccn1 (stereo not shown) [Example I-003],100,100,,100,,80 to 100,,80 to 100,80 to 100,100,100,100,100,100,80 to 100,,,
CC(NC(=O)c1cc(Cl)cc(C(F)(F)F)c1)c1nc(Br)nn1-c1ncccn1 (stereo not shown) [Example I-016],100,100,,100,,80 to 100,80 to 100,,,80,100,,100,,80 to 100,,,
CC(NC(=O)c1cc(Cl)nc(C(F)(F)F)c1)c1nc(I)nn1-c1ncccn1 (stereo not shown) [Example I-024],100,,,,,,,,,100,,,,80,,80,90,100

# From patent publication US20220386611A1, “NOVEL HETEROARYL-TRIAZOLE COMPOUNDS AS PESTICIDES” (Bayer Aktiengesellschaft, priority 2019, published 2022)
